Assay [1] addresses purified human farnesyl protein transferase (Homo sapiens, UniProt P49354+P49356). Nature of the assay: FPT activity: transfer of [3H] farnesyl from [3H] farnesyl pyrophosphate to biotinylated H-ras peptide (SPA). In kind it is biochemical. Particulars: ranges are stated for a listed group of compounds; range ends given as 'about <' / 'about >'. The protocol: FPT activity was determined by measuring the transfer of [^3H] farnesyl from [^3H] farnesyl pyrophosphate to a biotinylated peptide derived from the C-terminus of H-ras (biotin-CVLS). The reaction mixture contains: 50 mM Tris pH7.7, 5 mM MgCl2, 5 μM Zn^++, 5 mM DTT, 0.1% Triton-X, 0.05 μM peptide, 0.03 nM purified human farnesyl protein transferase, 0.180 μM [^3H] farnesyl pyrophosphate, plus the indicated concentration of tricyclic compound or vehicle control in a total volume of 100 μl. The reaction was incubated in a Vortemp shaking incubator at 37° C., 45 RPM for 60 minutes and stopped with 150 μl of 0.25 M EDTA containing 0.5% BSA and 1.3 mg/ml Streptavidin SPA beads. Radioactivity was measured in a Wallach 1450 Microbeta liquid scintillation counter. Percent inhibition was calculated relative to the vehicle control.

Assay [2] concerns Human tumor cells. Nature of the assay: Soft Agar Assay (anchorage-independent growth, colony count). Type of assay: cell-based. As to conditions: ranges are stated for a listed group of compounds, range ends given as 'about <' / 'about >'. As to the method: Anchorage-independent growth is a characteristic of tumorigenic cell lines. Human tumor cells can be suspended in growth medium containing 0.3% agarose and an indicated concentration of a farnesyl transferase inhibitor. The solution can be overlayed onto growth medium solidified with 0.6% agarose containing the same concentration of farnesyl transferase inhibitor as the top layer. After the top layer is solidified, plates can be incubated for 10-16 days at 37° C. under 5% CO2 to allow colony outgrowth. After incubation, the colonies can be stained by overlaying the agar with a solution of MTT (3-[4,5-dimethyl-thiazol-2-yl]-2,5-diphenyltetrazolium bromide, Thiazolyl blue) (1 mg/mL in PBS). Colonies can be counted and the IC50's can be determined.

Structures are written as SMILES. Where “and” joins values, the source holds several entries; their conditions need not be identical. Identical values can stand only once.

Usually IC50 stands for the point on the concentration scale where inhibition reaches its midpoint. As for `O=C(Nc1cccc(Cn2ccnc2)c1)[C@H]1CN(C2c3ccc(Cl)cc3CCc3cccnc32)CCN1` (mixture of isomers) [(14.2)], the IC50 in assay [1] lay within 0.05 to 8.9 nM; in assay [2] (Homo sapiens) it was 0.3 to 50 nM.

Regarding `CC(C)(C)OC(=O)N1CCN(C2c3ccc(Cl)cc3CCc3cc(Br)cnc32)CC1C(=O)Nc1cccc(Cn2ccnc2)c1` (single isomer, unassigned) [(1.3)], the IC50 is 0.05 to 8.9 nM and 0.05 to 2.7 nM and 0.05 to 1.2 nM in assay [1]; 0.3 to 50 nM in assay [2] (Homo sapiens).

Turning to `CC(C)(C)OC(=O)N1CCN(C2c3ccc(Cl)cc3CCc3cc(Br)cnc32)CC1C(=O)Nc1cccc(Cn2ccnc2)c1` (single isomer, unassigned) [(1.4)], in assay [1], the IC50 is 0.05 to 8.9 nM and 0.05 to 2.7 nM and 0.05 to 1.2 nM.

Regarding `Cc1cncn1Cc1cccc(NC(=O)C2CN(C3c4ccc(Cl)cc4CCc4cccnc43)CCN2C(=O)OC2CCCCC2)c1` (single isomer, unassigned) [(32.1)], the IC50 is 0.05 to 8.9 nM and 0.05 to 2.7 nM and 0.05 to 1.2 nM in assay [1]; 0.3 to 50 nM in assay [2] (Homo sapiens).

`Cc1cncn1Cc1cccc(NC(=O)C2CN(C3c4ccc(Cl)cc4CCc4cccnc43)CCN2C(=O)OC2CCCCC2)c1` (single isomer, unassigned) [(32.2)] gave an IC50 in assay [1] of 0.05 to 8.9 nM.

Regarding `Cc1cn(Cc2cccc(NC(=O)C3CN([C@@H]4c5ccc(Cl)cc5CCc5cc(Br)cnc54)CCN3)c2)cn1` (some centres unmarked) [(4.2)], the IC50 was in the range of 0.05 to 8.9 nM in assay [1] and 0.3 to 50 nM in assay [2] (Homo sapiens).

On to `Cc1cn(Cc2cccc(NC(=O)C3CN(C4c5ccc(Cl)cc5CCc5cc(Br)cnc54)CCN3)c2)cn1` (centres unmarked) [(4.3)], for which the IC50 is 0.05 to 8.9 nM in assay [1] and 0.3 to 50 nM in assay [2] (Homo sapiens).

On to `Cc1cn(Cc2cccc(NC(=O)C3CN([C@@H]4c5ccc(Cl)cc5CCc5cc(Br)cnc54)CCN3C(=O)NC3CCCCC3)c2)cn1` (some centres unmarked) [(5.1)], for which the IC50 was 0.05 to 8.9 nM and 0.05 to 2.7 nM in assay [1]; 0.3 to 50 nM in assay [2] (Homo sapiens).

As to `Cc1cn(Cc2cccc(NC(=O)C3CN(C4c5ccc(Cl)cc5CCc5cc(Br)cnc54)CCN3C(=O)NC3CCCCC3)c2)cn1` (centres unmarked) [(6.1)], the IC50 was 0.05 to 8.9 nM and 0.05 to 2.7 nM in assay [1]; 0.3 to 50 nM in assay [2] (Homo sapiens).

In the case of `O=C(Nc1cccc(Cn2ccnc2)c1)[C@@H]1CN(C2c3ccc(Cl)cc3CCc3cc(Br)cnc32)CCN1C1c2ccc(Cl)cc2CCc2cc(Br)cnc21` (some centres unmarked) [(12.1)], the IC50 in assay [1] is 0.05 to 8.9 nM.

In assay [1], `O=C(Nc1cccc(Cn2ccnc2)c1)[C@@H]1CN(C2c3ccc(Cl)cc3CCc3cc(Br)cnc32)CCN1` (some centres unmarked) [(12.2)] came in with an IC50 of 0.05 to 8.9 nM.

As to `O=C(Nc1cccc(Cn2ccnc2)c1)[C@H]1CN(C2c3ccc(Cl)cc3CCc3cccnc32)CCN1C1c2ccc(Cl)cc2CCc2cccnc21` (some centres unmarked) [(14.1)], in assay [2] (Homo sapiens), the IC50 is 0.3 to 50 nM.

With `O=C(Nc1cccc(Cn2ccnc2)c1)[C@H]1CNCCN1C1c2ccc(Cl)cc2CCc2cccnc21` (some centres unmarked) [(14.3)], the values for the IC50 in assay [1] and in assay [2] (Homo sapiens) were 0.05 to 8.9 nM and 0.3 to 50 nM, respectively.

For `O=C(Nc1cccc(Cn2ccnc2)c1)C1CN(C2c3ccc(Cl)cc3CCc3cccnc32)CCN1C(=O)OC1CCCCC1` (centres unmarked) [(15.1)], the IC50 in assay [1] was 0.05 to 8.9 nM and 0.05 to 2.7 nM and 0.05 to 1.2 nM; in assay [2] (Homo sapiens), 0.3 to 50 nM.

Regarding `O=C(Nc1cccc(Cn2ccnc2)c1)C1CN([C@@H]2c3ccc(Cl)cc3CCc3cccnc32)CCN1C(=O)OC1CCCCC1` (some centres unmarked) [(15.2)], the IC50 in assay [1] was 0.05 to 8.9 nM and 0.05 to 2.7 nM and 0.05 to 1.2 nM; in assay [2] (Homo sapiens) it was 0.3 to 50 nM.

Regarding `O=C(C1CN(C2c3ccc(Cl)cc3CCc3cccnc32)CCN1C(=O)OC1CCCCC1)N(Cc1ccccc1)c1cccc(Cn2ccnc2)c1` (centres unmarked) [(16.1)], the IC50 in assay [1] is 0.05 to 8.9 nM; in assay [2] (Homo sapiens), 0.3 to 50 nM.

Turning to `Cc1cn(Cc2cccc(NC(=O)C3CN(C4c5ccc(Cl)cc5CCc5cccnc54)CCN3C(=O)OC3CCCCC3)c2)cn1` (centres unmarked) [(21.1)], the IC50 in assay [1] is 0.05 to 8.9 nM and 0.05 to 2.7 nM and 0.05 to 1.2 nM; in assay [2] (Homo sapiens), 0.3 to 50 nM.

On to `Cc1cn(Cc2cccc(NC(=O)C3CN([C@@H]4c5ccc(Cl)cc5CCc5cccnc54)CCN3C(=O)OC3CCCCC3)c2)cn1` (some centres unmarked) [(22.1)], for which the IC50 was 0.05 to 8.9 nM and 0.05 to 2.7 nM and 0.05 to 1.2 nM in assay [1]; 0.3 to 50 nM in assay [2] (Homo sapiens).

Consider `Cc1cn(Cc2cccc(NC(=O)C3CN(C4c5ccc(Cl)cc5CCc5cccnc54)CCN3C(=O)NC3CCCCC3)c2)cn1` (centres unmarked) [(26.1)], for which the IC50 in assay [1] was 0.05 to 8.9 nM and 0.05 to 2.7 nM and 0.05 to 1.2 nM.

The molecule `Cc1cn(Cc2cccc(NC(=O)C3CN(C4c5ccc(Cl)cc5CCc5cccnc54)CCN3C(=O)Nc3ccc(Cl)cc3)c2)cn1` (centres unmarked) [(27.1)] came in with an IC50 in assay [1] of 0.05 to 8.9 nM.

`Cc1cn(Cc2cccc(NC(=O)C3CN(C4c5ccc(Cl)cc5CCc5cccnc54)CCN3C(=O)Cc3ccc(Cl)cc3)c2)cn1` (centres unmarked) [(28.1)]: the IC50 in assay [1] is 0.05 to 8.9 nM and 0.05 to 2.7 nM and 0.05 to 1.2 nM; in assay [2] (Homo sapiens), 0.3 to 50 nM.

With `Cc1cn(Cc2cccc(NC(=O)C3CN(C4c5ccc(Cl)cc5CCc5cccnc54)CCN3S(C)(=O)=O)c2)cn1` (centres unmarked) [(29.1)], the IC50 in assay [1] was 0.05 to 8.9 nM and 0.05 to 2.7 nM and 0.05 to 1.2 nM.

With `Cc1cn(Cc2cccc(NC(=O)C3CN([C@@H]4c5ccc(Cl)cc5CCc5cccnc54)CCN3C(=O)CC3CCN(C(N)=O)CC3)c2)cn1` (some centres unmarked) [(30.1)], the IC50 in assay [1] was 0.05 to 8.9 nM and 0.05 to 2.7 nM and 0.05 to 1.2 nM; in assay [2] (Homo sapiens), 0.3 to 50 nM.

Turning to `Cc1nccn1Cc1cccc(NC(=O)C2CN(C3c4ccc(Cl)cc4CCc4cccnc43)CCN2C(=O)OC2CCCCC2)c1` (centres unmarked) [(31.1)], the IC50 in assay [2] is < 0.5 nM.

`CC(C)(C)OC(=O)N1CCN(C2c3ccc(Cl)cc3CCc3cccnc32)C(C(=O)Nc2cccc(Cn3ccnc3)c2)C1` (centres unmarked) [(40.1)] had an IC50 in assay [2] (Homo sapiens) of 0.3 to 50 nM.

As to `CC(C)(C)OC(=O)N1CCN([C@@H]2c3ccc(Cl)cc3CCc3cccnc32)C(C(=O)Nc2cccc(Cn3ccnc3)c2)C1` (some centres unmarked) [(40.2)], the IC50 in assay [2] (Homo sapiens) was in the range of 0.3 to 50 nM.

With `NC(=O)N1CCC(CC(=O)N2CCN(C3c4ccc(Cl)cc4CCc4cccnc43)C(C(=O)Nc3cccc(Cn4ccnc4)c3)C2)CC1` (centres unmarked) [(45.1)], the IC50 lay in the range of 0.05 to 8.9 nM in assay [1] and 0.3 to 50 nM in assay [2] (Homo sapiens).

`Cc1cn(CCc2ccccc2NC(=O)[C@H]2CN([C@H]3c4ccc(Cl)cc4CCc4cccnc43)CCN2C(=O)OC2CCCCC2)cn1` [(47.1)] came in with an IC50 in assay [1] of 0.05 to 8.9 nM.

These data come from US7635697B2, “Farnesyl protein transferase inhibitors and methods for treating proliferative diseases” (Schering Corporation, priority 2004, dated 2009).
